According to US20100190735A1, “Mouthwash and Method of Using Same for the Treatment of Mucositis or Stomatitis” (priority 2006, published 2010):
Structures can show the parent of a compound that is named as a salt. Where two headings read alike, the source gives them in different places.

Key:
[1] = Storage stability of mouth rinse formulation B8: potency of the actives by HPLC; assay type: physicochemical
Description: (§1) Quantification of the respective ingredients was done using high performance liquid chromatography (HPLC). A difference in calculated quantity of less than 5% from the intial formulation (i.e. time=0) amount was considered a “pass”, that is, indicative of minimal degradation. The relative standard deviation for the HPLC calculations was 3%.

[2] = Storage stability of formulation B8: preservative assay by HPLC; assay type: physicochemical
Description: as §1

[3] = in H2O, cited from earlier work
[4] = formulation B8, 2 months at 40° C.
[5] = formulation B8, 2 months at 40° C., 90 to 110% of label claim, less than 5% change
[6] = formulation B8, 2 months at room temperature
[7] = formulation B8, 2 months at room temperature, 90 to 110% of label claim, less than 5% change
[8] = formulation B8, 3 months at 40° C.
[9] = formulation B8, 3 months at 40° C., 90 to 110% of label claim, less than 5% change
[10] = formulation B8, 3 months at room temperature
[11] = formulation B8, 3 months at room temperature, 90 to 110% of label claim, less than 5% change
[12] = formulation B8, 4 months at 40° C.
[13] = formulation B8, 4 months at 40° C., 90 to 110% of label claim, less than 5% change
[14] = formulation B8, 4 months at room temperature, 90 to 110% of label claim, less than 5% change
[15] = formulation B8, 12 months at fridge 4° C.
[16] = formulation B8, 12 months at fridge 4° C., 90 to 110% of label claim, less than 5% change
[17] = formulation B8, 12 months at room temperature
[18] = formulation B8, 12 months at room temperature, 90 to 110% of label claim, less than 5% change
[19] = formulation B8, time = 0, limits 90 to 110% of label claim

Compound | Potency (of label claim) [1, 4] [%] | Potency Pass/fail [1, 5] | Potency (of label claim) [1, 6] [%] | Potency Pass/fail [1, 7] | Potency (of label claim) [1, 8] [%] | Potency Pass/fail [1, 9] | Potency (of label claim) [1, 10] [%] | Potency Pass/fail [1, 11] | Potency (of label claim) [1, 12] [%] | Potency Pass/fail [1, 13] | Potency Pass/fail [1, 14] | Potency (of label claim) [1, 15] [%] | Potency Pass/fail [1, 16] | Potency (of label claim) [1, 17] [%] | Potency Pass/fail [1, 18] | Potency (of label claim) ([1]; formulation B8, time = 0) [%] | Potency Pass/fail [1, 19] | Preservative assay [2, 4] [%] | Preservative assay [2, 6] [%] | Preservative assay [2, 8] [%] | further results
CCN(CC)CC(=O)Nc1c(C)cccc1C [Lidocaine HCl] | 98.1 | Pass (A difference in calculated quantity of less than 5% from the intial formulation (i.e. time=0) amount was considered a “pass”) | 99.7 | Pass (A difference in calculated quantity of less than 5% from the intial formulation (i.e. time=0) amount was considered a “pass”) | 102.15 | Pass (A difference in calculated quantity of less than 5% from the intial formulation (i.e. time=0) amount was considered a “pass”) | 101.8 | Pass (A difference in calculated quantity of less than 5% from the intial formulation (i.e. time=0) amount was considered a “pass”) | 102.9 | Pass (A difference in calculated quantity of less than 5% from the intial formulation (i.e. time=0) amount was considered a “pass”) | Pass (A difference in calculated quantity of less than 5% from the intial formulation (i.e. time=0) amount was considered a “pass”) | 101.4 | Pass (A difference in calculated quantity of less than 5% from the intial formulation (i.e. time=0) amount was considered a “pass”) | 101.4 | Pass (A difference in calculated quantity of less than 5% from the intial formulation (i.e. time=0) amount was considered a “pass”) | 100.4 | Pass (A difference in calculated quantity of less than 5% from the intial formulation (i.e. time=0) amount was considered a “pass”) |  |  |  | 
COC(=O)c1ccc(O)cc1 [Methyl paraben] |  |  |  |  |  |  |  |  |  |  |  |  |  |  |  |  |  | 95 | 97.6 | 95.7 | Preservative assay [2, 10]: 100.1%; Preservative assay [2, 12]: 97.1%; Preservative assay [2, 17]: Methyl P - 98.2%; Preservative assay ([2]; formulation B8, time = 0): paraben: 100.8%
CN(C)CCOC(c1ccccc1)c1ccccc1 [Diphenhydramine HCl] | 100.2 | Pass (A difference in calculated quantity of less than 5% from the intial formulation (i.e. time=0) amount was considered a “pass”) | 100.8 | Pass (A difference in calculated quantity of less than 5% from the intial formulation (i.e. time=0) amount was considered a “pass”) | 101.7 | Pass (A difference in calculated quantity of less than 5% from the intial formulation (i.e. time=0) amount was considered a “pass”) | 101.85 | Pass (A difference in calculated quantity of less than 5% from the intial formulation (i.e. time=0) amount was considered a “pass”) | 100.1 | Pass (A difference in calculated quantity of less than 5% from the intial formulation (i.e. time=0) amount was considered a “pass”) | Pass (A difference in calculated quantity of less than 5% from the intial formulation (i.e. time=0) amount was considered a “pass”) | 102.4 | Pass (A difference in calculated quantity of less than 5% from the intial formulation (i.e. time=0) amount was considered a “pass”) | 103.0 | Pass (A difference in calculated quantity of less than 5% from the intial formulation (i.e. time=0) amount was considered a “pass”) | 100.6 | Pass (A difference in calculated quantity of less than 5% from the intial formulation (i.e. time=0) amount was considered a “pass”) |  |  |  | 
C[C@@H]1C[C@H]2[C@@H]3CCC4=CC(=O)C=C[C@]4(C)[C@@]3(F)[C@@H](O)C[C@]2(C)[C@@]1(O)C(=O)COP(=O)(O)O [Dexamethasone sodium phosphate, Dexamethasone 21-phosphate disodium salt] |  |  |  |  |  |  |  |  |  |  |  |  |  |  |  |  |  |  |  |  | Solubility (Notes) ([3]; in words): H2O soluble
C[C@@H]1[C@H](O)[C@@H](C)/C=C/C=C/CC/C=C/C=C/C=C/C=C/C(O[C@H]2O[C@H](C)[C@@H](O)[C@H](N)[C@@H]2O)CC2O[C@](O)(CC(O)C(O)CCC(O)CC(O)CC(O)CC(=O)O[C@H]1C)CC(O)C2C(=O)O (stereo partly drawn) [Nystatin] | 98.4 | Fail | 106.8 | Pass (A difference in calculated quantity of less than 5% from the intial formulation (i.e. time=0) amount was considered a “pass”) | 88.8 | Fail | 106 | Pass (A difference in calculated quantity of less than 5% from the intial formulation (i.e. time=0) amount was considered a “pass”) | 92.4 | Fail | Pass (A difference in calculated quantity of less than 5% from the intial formulation (i.e. time=0) amount was considered a “pass”) | 101.7 | Pass (A difference in calculated quantity of less than 5% from the intial formulation (i.e. time=0) amount was considered a “pass”) | 109.6 | Pass (A difference in calculated quantity of less than 5% from the intial formulation (i.e. time=0) amount was considered a “pass”) | 108.5 | Pass (A difference in calculated quantity of less than 5% from the intial formulation (i.e. time=0) amount was considered a “pass”) |  |  |  | Potency (of label claim) ([1]; formulation B8, 4 months at room temperature): 105.3%; Solubility (Notes) ([3]; in words): slightly soluble-; Solubility (Notes) [3]: 4 mg/ml in H2O
CCCOC(=O)c1ccc(O)cc1 [Propyl paraben] |  |  |  |  |  |  |  |  |  |  |  |  |  |  |  |  |  | 99.1 | 99.3 | 99.4 | Preservative assay [2, 10]: 100.4%; Preservative assay [2, 12]: 99.2%; Preservative assay [2, 17]: Propul P - 99.1%; Preservative assay ([2]; formulation B8, time = 0): paraben: 99.1%
